Results reported in ChEMBL document CHEMBL5506006, “Discovery of 2,9-diaryl-6-carbamoylpurines as a novel class of antitubercular agents” (Eur J Med Chem, 2024).
Converted amounts (≈) assume the structure as drawn. The source made the active and inactive calls. The calls are words filed in the database; no cut-off is given here.

Legend:
[1] = system: Mycobacterium tuberculosis; test: Antituberculosis activity against Mycobacterium tuberculosis H37Rv; format: functional, organism-based
[2] = Cytotoxicity against African green monkey Vero cells; format: toxicity, cell-based; settings: African green monkey (Chlorocebus sabaeus)
[3] = Selectivity index, ratio of EC50 for african green monkey Vero cells to IC90 for Mycobacterium tuberculosis H37Rv; format: toxicity; settings: read-out: Selectivity Index
[4] = system: Mycobacterium tuberculosis; test: Antituberculosis activity against Mycobacterium tuberculosis H37Rv infected in macrophage assessed as reduction in bacterial load at 10 times IC90 incubated for 3 days; format: functional, organism-based; settings: time 3.0 day
[5] = Biodistribution in C57BL/6 mouse blood at 25 mg/kg, po administered as single dose and measured after 2 hrs by HPLC based UV-Visble detector method; format: ADME, organism-based; settings: read-out: Drug uptake
[6] = Biodistribution in C57BL/6 mouse blood at 25 mg/kg, po administered as single dose and measured after 6 hrs by HPLC based UV-Visble detector method; format: ADME, organism-based; settings: read-out: Drug uptake
[7] = Biodistribution in C57BL/6 mouse liver at 25 mg/kg, po administered as single dose and measured after 2 hrs by HPLC based UV-Visble detector method; format: ADME, organism-based; settings: read-out: Drug uptake
BMDM = test: Cytotoxicity against mouse BMDMs at 2 to 10 times MIC incubated for 24 hrs by MTS assay; format: toxicity, cell-based
[8] = Biodistribution in C57BL/6 mouse lung at 25 mg/kg, po administered as single dose and measured after 24 hrs by HPLC based UV-Visble detector method; format: ADME, organism-based; settings: read-out: Drug uptake
[9] = Biodistribution in C57BL/6 mouse liver at 25 mg/kg, po administered as single dose and measured after 24 hrs by HPLC based UV-Visble detector method; format: ADME, organism-based; settings: in vivo
[10] = system: Mycobacterium tuberculosis; test: Antimycobacterial activity against Mycobacterium tuberculosis H37Rv infected in C57BL/6 mouse assessed as reduction in lung bacterial burden at 25 mg/kg, po pre-infected for 24 hrs followed by compound addition for 6 days per week and measured on day 18 and 36; format: functional, organism-based; settings: time 18-36 day
[11] = Biodistribution in C57BL/6 mouse lung at 25 mg/kg, po administered as single dose and measured after 48 hrs by HPLC based UV-Visble detector method; format: ADME, organism-based; settings: read-out: Drug uptake
[12] = system: Mycobacterium tuberculosis; test: Antimycobacterial activity against Mycobacterium tuberculosis H37Rv infected in C57BL/6 mouse assessed as reduction in liver bacterial burden at 25 mg/kg, po pre-infected for 24 hrs followed by compound addition for 6 days per week and measured on day 18; format: functional, organism-based; settings: time 18.0 day
[13] = Biodistribution in C57BL/6 mouse liver at 25 mg/kg, po administered as single dose and measured after 6 hrs by HPLC based UV-Visble detector method; format: ADME, organism-based; settings: read-out: Drug uptake
[14] = system: Mycobacterium tuberculosis; test: Antituberculosis activity against Mycobacterium tuberculosis H37Rv infected in macrophage assessed as reduction in bacterial load at 2 times IC90 incubated for 3 days; format: functional, organism-based; settings: time 3.0 day

Row | SMILES | IC50 [1] [µg/mL] | IC90 [1] [µg/mL] | other results
1 | CN(C)c1ccc(-c2nc(C(N)=O)c3ncn(-c4ccccc4)c3n2)cc1 | 1.38 (≈ 3.85 µM) | 1.67 (≈ 4.66 µM) | EC50 [2]: > 40 µg/mL; selectivity ratio [3]: > 23.9
2 | NC(=O)c1nc(-c2ccc(O)cc2)nc2c1ncn2-c1ccccc1 | 0.7 (≈ 2.11 µM) | 1.2 (≈ 3.62 µM) | EC50 [2]: > 30 µg/mL; selectivity ratio [3]: > 25.5
3 | COc1ccc(-n2cnc3c(C(N)=O)nc(-c4ccccc4O)nc32)cc1 | > 100 | > 100 | –
4 | NC(=O)c1nc(-c2ccccc2O)nc2c1ncn2Cc1ccccc1 | > 100 | > 100 | –
5 | NC(=O)c1nc(-c2cccc(O)c2)nc2c1ncn2-c1ccccc1 | > 100 | > 100 | –
6 | NC(=O)c1nc(-c2ccc(N3CCOCC3)cc2)nc2c1ncn2-c1ccccc1 | > 100 | > 100 | –
7 | Cc1ccc(-n2cnc3c(C(N)=O)nc(-c4ccc(O)cc4)nc32)cc1 | 19.2 (≈ 55.6 µM) | > 100 | –
8 | NC(=O)c1nc(-c2ccc(C(F)(F)F)cc2)nc2c1ncn2-c1ccccc1 | > 100 | > 100 | –
9 | Cc1ccc(-n2cnc3c(C(N)=O)nc(-c4ccccc4O)nc32)cc1 | > 100 | > 100 | –
10 | CC(C)(C)Oc1ccc(-c2nc(C(N)=O)c3ncn(-c4ccccc4)c3n2)cc1 | > 100 | > 100 | –
11 | COc1ccc(-n2cnc3c(C(N)=O)nc(-c4ccc(O)cc4)nc32)cc1 | > 100 | > 100 | –
12 | Cn1cnc2c(C(N)=O)nc(-c3ccccc3O)nc21 | > 100 | > 100 | –
13 | Cc1ccc(-n2cnc3c(C(N)=O)nc(-c4cccc(O)c4)nc32)cc1 | > 100 | > 100 | –
14 | N#Cc1ccc(-n2cnc3c(C(N)=O)nc(-c4ccc(O)cc4)nc32)cc1 | > 100 | > 100 | –
15 | COc1ccc(-n2cnc3c(C(N)=O)nc(-c4cccc(O)c4)nc32)cc1 | > 100 | > 100 | –
16 | CCOc1ccc(-c2nc(C(N)=O)c3ncn(-c4ccccc4)c3n2)cc1 | 1.44 (≈ 4.01 µM) | 1.65 (≈ 4.59 µM) | EC50 [2]: 12.9 µg/mL (≈ 35.9 µM); selectivity ratio [3]: 7.85
17 | COc1ccc(-c2nc(C(N)=O)c3ncn(-c4ccccc4)c3n2)c2ccccc12 | > 100 | > 100 | –
18 | N#Cc1ccc(-n2cnc3c(C(N)=O)nc(-c4cccc(O)c4)nc32)cc1 | 38.5 (≈ 108 µM) | > 100 | –
19 | Cn1cnc2c(C(N)=O)nc(-c3ccc(O)cc3)nc21 | 25.8 (≈ 95.8 µM) | 47.8 (≈ 178 µM) | –
20 | NC(=O)c1nc(-c2ccc(Oc3ccc(Cl)cc3)cc2)nc2c1ncn2-c1ccccc1 | 2.69 (≈ 6.09 µM) | 3.09 (≈ 6.99 µM) | EC50 [2]: 12.7 µg/mL (≈ 28.7 µM); selectivity ratio [3]: 4.11
21 | Cn1cnc2c(C(N)=O)nc(-c3cccc(O)c3)nc21 | > 100 | > 100 | –
22 | NC(=O)c1nc(-c2ccccc2O)nc2c1ncn2-c1ccccc1 | > 100 | > 100 | –
23 | CCc1ccc(-c2nc(C(N)=O)c3ncn(-c4ccccc4)c3n2)cc1 | > 100 | > 100 | –
24 | NC(=O)c1nc(-c2ccc(OC(F)(F)F)cc2)nc2c1ncn2-c1ccccc1 | > 100 | > 100 | –
25 | COc1ccc2cc(-c3nc(C(N)=O)c4ncn(-c5ccccc5)c4n3)ccc2c1 | > 100 | > 100 | –
26 | COc1ccc(-c2nc(C(N)=O)c3ncn(-c4ccccc4)c3n2)cc1 | < 0.1 | < 0.19 | Activity [4]: Active; concentration at 2 h [5]: 630 ng/g; concentration at 6 h [6]: 2160 ng/g; concentration at 2 h [7]: 4800 ng/g; Activity (BMDM): Non-Toxic; EC50 [2]: > 30 µg/mL; concentration at 24 h [8]: 4030 ng/g; Drug uptake [9]: Not Active; Activity [10]: Active; concentration at 48 h [11]: 1210 ng/g; selectivity ratio [3]: > 154; Activity [12]: Active; concentration at 6 h [13]: 1460 ng/g; Activity [14]: Active
27 | NC(=O)c1nc(-c2ccc(O)cc2)nc2c1ncn2Cc1ccccc1 | > 100 | > 100 | –
28 | N#Cc1ccc(-n2cnc3c(C(N)=O)nc(-c4ccccc4O)nc32)cc1 | > 100 | > 100 | –
